The values that follow come from patent US8541464B2, “Treatment of atrial fibrillation” (HUYA Biosciences International LLC, priority 2009, dated 2013).

“And” between values parts separate entries of the source, which are not always exact repeats. Identical values can stand only once.

Series [1] in a line: Plasma PK in Beagle dog after oral and IV administration. The series is classed as in vivo. Set-up: Tmax: unit not given here. As to the method: In dogs an PO dose of 40 mg/kg (efficacious oral dose range) gives peak levels of 2.1 μg/mL (4.6 μM). […] These PK data and extrapolated conclusion are in agreement with the CV safety study, where PK after 15 minute infusion was conducted. In general, the mean concentrations peaked at the 10-minute time point, post-initiation, for each 15-minute infusion of sulcardine sulfate at 10 and 30 mg/kg (efficacious dose against ventricular arrhythmia). The mean peak plasma concentrations were 1.8 (4.2 μM) and 11.2 μg/mL (24.6 μM), respectively (data not shown). These values were well below in the case of the lower dose to barely reaching some but not all atrial cell patch clamp IC50s on various ion channels, although still associated with significant drops in mean arterial pressure, tachycardia, QT interval prolongation and changes in ventricular contractility were observed.

Another series relates to conscious beagle dogs. The experiment in a line: Hemodynamics and plasma histamine in conscious beagle dogs, 10 minute infusions of increasing doses. The series is classed as in vivo, beagle dog. As to conditions: for Heart rate / Histamine Concentration / Mean blood pressure: 10 minute infusion. Here is the method:
The effect of sulcardine sulfate intravenously administered over a 10 minute infusion on the mean blood pressure, heart rate, and plasma histamine concentration of conscious beagle dogs was performed. Three male and female purpose-bred beagles, weighing 10.0-12.7 Kg were intravenously administered repeated increasing doses of sulcardine sulfate (cumulative dose 1-44 mg/kg) at 15 minute intervals following a 10 minute infusion of the prior dose. The administered doses were as follows: 1 mg/kg, 3 mg/kg, 10 mg/kg, and 30 mg/kg sulcardine sulfate. Heart rate, mean arterial blood pressure, and histamine concentrations were measured (Table 3) at 10 minute intervals after completion of each drug infusion period.

As for sulcardine sulfate, the K10 in series [1] (40 mg/kg po) amounted to 0.1748 ± 0.0306 h⁻¹. For the same substance, in series [1] (40 mg/kg po), the Tmax is 1.508 ± 0.4160. Besides, the peak levels in series [1] (dogs, PO 40 mg/kg, 40 mg/kg) is 2.1 μg/mL and 4.6 μM. Besides, the Heart rate in the series on conscious beagle dogs (1 mg/kg) is on record as 90.00 ± 12.58 bpm; in the series with conscious beagle dogs (3 mg/kg), 110.00 ± 10.41 bpm; with conscious beagle dogs (10 mg/kg), 111.7 ± 17.64 bpm; in the series on conscious beagle dogs (30 mg/kg), 111.7 + 6.01 bpm. Moreover, the “Histamine Concentration” value with conscious beagle dogs (1 mg/kg) is 93.95 ± 24.11 ng/mL; in the series on conscious beagle dogs (3 mg/kg), 182.5 ± 46.11 ng/mL; in the series on conscious beagle dogs (10 mg/kg), 252.6 ± 85.78 ng/mL; in the series on conscious beagle dogs (30 mg/kg), 465.9 ± 27.75 ng/mL. Further, the Mean blood pressure in the series with conscious beagle dogs (1 mg/kg) is 166.7 ± 10.99 mmHg; with conscious beagle dogs (3 mg/kg), 170.7 ± 7.36 mmHg; with conscious beagle dogs (10 mg/kg), 101.0 ± 28.45 mmHg; with conscious beagle dogs (30 mg/kg), 69.7 ± 14.7 mmHg. Moreover, in the series with conscious beagle dogs (with erythemitous flare of face and ears and urticaria (hives)), the “observations during intravenous administration over 10 minutes” value is recorded as “dose-dependent decrease in arterial blood pressure”.
